Results from the supplement of paper PMC7287046.

Key:
Settings in all cases: exposure time: 72 h
KNS42 = system: KNS42
Experimental: (§1)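 Glioma cell lines and primary cultures were treated with single drugs in a nine-step threefold dilution series, about 72 h. Viability was read by CellTiter-Glo and normalised to untreated controls. Absolute IC50 was fitted in GraphPad Prism; values beyond the tested dose range are censored at the block's top or lowest dose.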

T98 = system: T98
Experimental: as §1

SF268 = system: SF268
Experimental: as §1

U87 = system: U87
Experimental: as §1

SF539 = system: SF539
Experimental: as §1

U251 = system: U251
Experimental: as §1

AM38 = system: AM38
Experimental: as §1

U118 = system: U118
Experimental: as §1

SNB75 = system: SNB75
Experimental: as §1

CAS-1 = system: CAS-1
Experimental: as §1

SMILES	IC50 (absolute, viability) (KNS42) [µM]	IC50 (absolute, viability) (T98) [nM]	IC50 (absolute, viability) (SF268) [nM]	IC50 (absolute, viability) (U87) [µM]	IC50 (absolute, viability) (SF539) [µM]	IC50 (absolute, viability) (U251) [nM]	IC50 (absolute, viability) (AM38) [nM]	IC50 (absolute, viability) (U118) [µM]	IC50 (absolute, viability) (SNB75) [µM]	IC50 (absolute, viability) (CAS-1) [µM]
N#CC(c1ccnc(NCCc2cccnc2)n1)c1nc2ccccc2s1 (configuration not stated)	27.3	7190	7050	24.5	3.71	11300	10000	20.1	13.1	
Cc1cc([C@@H](C)Nc2ccccc2C(=O)O)c2nc(N3CCOCC3)cc(=O)n2c1 [AZD6482]	41.4	8390	13900	6.69	4.86	5070	8350	22	9.91	3.15
C[C@@H](Oc1cc(-c2cnn(C3CCNCC3)c2)cnc1N)c1c(Cl)ccc(F)c1Cl [Crizotinib]	25	1880	29.6	3.63	< 0.0229	330		< 0.0229		> 50
CC(=O)O[C@@]12CO[C@@H]1C[C@H](O)[C@@]1(C)C(=O)[C@H](O)C3=C(C)[C@@H](OC(=O)[C@H](O)[C@@H](NC(=O)OC(C)(C)C)c4ccccc4)C[C@@](O)([C@@H](OC(=O)c4ccccc4)[C@H]21)C3(C)C [Docetaxel]	0.00438	0.818	2.31	0.00273	0.000628	0.0604	1.28	0.0101	0.00167	0.0437
C#Cc1cccc(Nc2ncnc3cc(OCCOC)c(OCCOC)cc23)c1 [Erlotinib]	27.2	27500	38100	11.6	25		27800	35.5	15	> 50
Nc1ccn([C@@H]2O[C@H](CO)[C@@H](O)C2(F)F)c(=O)n1 [Gemcitabine]	0.859	450	210	0.0279	0.182	149	145	0.32	0.147	0.207
CCOc1nc(NC(=O)Cc2cc(OC)ccc2OC)cc(N)c1C#N [JNK inhibitor VIII]	36.5	6360	21100	12	7.09	48700	15800	28.8	8.38	20.2
C=CCc1cccc(/C=N/NC(=O)CN2CCN(Cc3ccccc3)CC2)c1O [PAC-1]	17.8	1710	2970	7.18	3.06	6150	404	5.44	2.98	> 100
CO[C@H]1C[C@@H]2CC[C@@H](C)[C@@](O)(O2)C(=O)C(=O)N2CCCC[C@H]2C(=O)O[C@H]([C@H](C)C[C@@H]2CC[C@@H](O)[C@H](OC)C2)CC(=O)[C@H](C)/C=C(\C)[C@@H](O)[C@@H](OC)C(=O)[C@H](C)C[C@H](C)/C=C/C=C/C=C/1C [Rapamycin]	> 6.6	< 3.02			< 0.00302		< 3.02	> 6.6	> 6.6	
CCC(=O)N1CCN(c2ccc(-n3c(=O)ccc4cnc5ccc(-c6cnc7ccccc7c6)cc5c43)cc2C(F)(F)F)CC1 [Torin1]	0.434	25.1	74.6	0.0174	0.028	199	4.18	0.0274	0.0191	0.0285
